Data on 12 molecules can be found in US6930203B2, “Gelling agents or thickeners” (Applied NanoSystems B.V., priority 2001, dated 2005).

A short description of this series: Solvent scope of N,N′-dialkylaldaramides (1%) or N,N′-dialkylpentaramides (1%): gelation/solubility behaviour in solvents. It counts as physicochemical. More on the design: key: g = gelation; s = soluble; p = precipitates; c = crystallizes; ns = not soluble; v = viscous; g* = unstable gel, precipitates; cg = crystalline gel. The settings on record: 1% gelling agent. An excerpt:
It will be understood that the use of the present gelling agents or thickeners to prepare a gel or to thicken a composition is also encompassed by the invention. As is well known, gelling behavior of compounds or compositions is highly unpredictable. […] Preferably, the gelling phenomenon is thermo reversible.
Preferred examples include aromatic and nonaromatic hydrocarbons, alcohols, ethers, esters, aldehydes, alkanoic acids, epoxides, amines, halogenated hydrocarbons, silicon oils, vegetable oils, phosphoric esters, sulfoxides, water and mixtures thereof. In order to obtain a gel, the gelling agent or thickener is preferably mixed with the composition to be transformed to a gel in an amount of between 0.01 and 50 wt. %, based on the weight of the composition. In a preferred embodiment, the mixture of the gelling agent or thickener and the composition is heated to allow for an even better gel formation or thickening. Typically, the heating will involve raising the temperature of the mixture to about 30-175° C. until a clear solution is obtained. In an alternative embodiment, the gelling agent is first dissolved in a polar or apolar solvent and then added to or sprayed into a composition or solvent to be converted into a gel.
Solvent scope of N,N′-dialkylaldaramides (1%) or N,N′-dialkylpentaramides (1%) 1-24 refers to the compounds prepared in Examples 1-23)

In the case of `O=C(NC1CCCCC1)[C@@H](O)[C@@H](O)[C@H](O)[C@@H](O)C(=O)NC1CCCCCCCCCCC1` [Example 23, N1-cyclododecyl, N6-cyclohexyl D-glucaramide], the “Gelation/solubility behaviour in Cyclohexane” value is “p”, the “Gelation/solubility behaviour in n-butylacetate” value is “p” and the “Gelation/solubility behaviour in p-xylene” value is reported as “p”. For the same molecule, the “Gelation/solubility behaviour in 2-methoxyethanol” value (2-methoxyethanol) is given as “p”. For the same molecule, the “Gelation/solubility behaviour in methyl benzoic acid” value (methyl benzoic acid) was “p”. The “Gelation/solubility behaviour in methyl laurate” value (methyl laurate) is reported as “p”. In addition, the “Gelation/solubility behaviour in silicon oil” value (silicon oil) is listed as “v”.

`O=C(NC1CCCCCCCCCCC1)[C@@H](O)[C@@H](O)[C@H](O)[C@H](O)C(=O)NC1CCCCCCCCCCC1` [Example 16, dicyclododecyl D-mannaramide]: the “Gelation/solubility behaviour in 1,2-dichloroethane” value is on record as “c”, the “Gelation/solubility behaviour in 2-octanol” value is reported as “s”, the “Gelation/solubility behaviour in 2-propanol” value is on record as “cg” and the “Gelation/solubility behaviour in Cyclohexane” value was “ns”. Further, the “Gelation/solubility behaviour in Dimethylsulfoxide” value is “p”, the “Gelation/solubility behaviour in Ethanol” value is “p”, the “Gelation/solubility behaviour in Hexadecane” value is on record as “ns” and the “Gelation/solubility behaviour in Toluene” value was “ns”. The “Gelation/solubility behaviour in Water” value is listed as “ns”, the “Gelation/solubility behaviour in n-butylacetate” value was “ns” and the “Gelation/solubility behaviour in p-xylene” value was “ns”.

With `CO[C@@H]([C@H](O)[C@H](O)C(=O)NC1CCCCC1)[C@@H](O)C(=O)NC1CCCCC1` [Example 20, 3-O-methyl-dicyclohexyl D-glucaramide], the “Gelation/solubility behaviour in 1,2-dichloroethane” value is “c”, the “Gelation/solubility behaviour in 2-octanol” value is given as “p”, the “Gelation/solubility behaviour in 2-propanol” value is recorded as “c” and the “Gelation/solubility behaviour in Cyclohexane” value was “ns”. Besides, the “Gelation/solubility behaviour in Dimethylsulfoxide” value is “s”, the “Gelation/solubility behaviour in Ethanol” value was “c”, the “Gelation/solubility behaviour in Hexadecane” value is given as “ns” and the “Gelation/solubility behaviour in Toluene” value is “p”. In addition, the “Gelation/solubility behaviour in Water” value is “ns”, the “Gelation/solubility behaviour in n-butylacetate” value is recorded as “p” and the “Gelation/solubility behaviour in p-xylene” value is “p”.

With `O=C(NC1CCCCC1)[C@@H](O)[C@@H](O)[C@@H](O)C(=O)NC1CCCCC1` [Example 4, dicyclohexyl D-ribaramide], the “Gelation/solubility behaviour in 1,2-dichloroethane” value is on record as “s”, the “Gelation/solubility behaviour in 2-octanol” value was “p”, the “Gelation/solubility behaviour in 2-propanol” value was “p” and the “Gelation/solubility behaviour in Cyclohexane” value was “ns”. The “Gelation/solubility behaviour in Dimethylsulfoxide” value is given as “s”, the “Gelation/solubility behaviour in Ethanol” value is given as “s”, the “Gelation/solubility behaviour in Hexadecane” value is reported as “ns” and the “Gelation/solubility behaviour in Toluene” value was “p”. The “Gelation/solubility behaviour in Water” value is reported as “ns”, the “Gelation/solubility behaviour in n-butylacetate” value is on record as “p” and the “Gelation/solubility behaviour in p-xylene” value is “p”.

As to `CCCCCCCCNC(=O)[C@@H](O)[C@H](O)[C@H](O)[C@@H](O)C(=O)NCCCCCCCC` [Example 10, dioctyl galactaramide], the “Gelation/solubility behaviour in 1,2-dichloroethane” value is on record as “ns”, the “Gelation/solubility behaviour in 2-octanol” value was “ns”, the “Gelation/solubility behaviour in 2-propanol” value is “ns” and the “Gelation/solubility behaviour in Cyclohexane” value is recorded as “ns”. Also, the “Gelation/solubility behaviour in Dimethylsulfoxide” value is reported as “s”, the “Gelation/solubility behaviour in Ethanol” value is “c”, the “Gelation/solubility behaviour in Hexadecane” value is reported as “ns” and the “Gelation/solubility behaviour in Toluene” value is “ns”. Moreover, the “Gelation/solubility behaviour in Water” value is on record as “ns”, the “Gelation/solubility behaviour in n-butylacetate” value is “ns” and the “Gelation/solubility behaviour in p-xylene” value was “ns”.

Regarding `CCCCNC(=O)[C@@H](O)[C@@H](O)[C@H](O)[C@H](O)C(=O)NCCCC` [Example 2, dibutyl D-mannaramide], the “Gelation/solubility behaviour in 1,2-dichloroethane” value is “Ns”, the “Gelation/solubility behaviour in 2-octanol” value was “Ns”, the “Gelation/solubility behaviour in Cyclohexane” value was “Ns” and the “Gelation/solubility behaviour in Hexadecane” value is listed as “Ns”. Also, the “Gelation/solubility behaviour in Toluene” value is given as “Ns”, the “Gelation/solubility behaviour in Water” value is given as “Ns”, the “Gelation/solubility behaviour in n-butylacetate” value is listed as “Ns” and the “Gelation/solubility behaviour in p-xylene” value was “Ns”.

With dicyclohexyl galactaramide [Example 7], the “Gelation/solubility behaviour in 1,2-dichloroethane” value is reported as “ns”, the “Gelation/solubility behaviour in 2-octanol” value is recorded as “ns”, the “Gelation/solubility behaviour in 2-propanol” value is “c” and the “Gelation/solubility behaviour in Cyclohexane” value is “ns”. Further, the “Gelation/solubility behaviour in Dimethylsulfoxide” value was “c”, the “Gelation/solubility behaviour in Ethanol” value was “c”, the “Gelation/solubility behaviour in Hexadecane” value is on record as “ns” and the “Gelation/solubility behaviour in Toluene” value was “ns”. Also, the “Gelation/solubility behaviour in Water” value is “ns”, the “Gelation/solubility behaviour in n-butylacetate” value is “ns” and the “Gelation/solubility behaviour in p-xylene” value is recorded as “ns”.

Take `CCCCCCCCNC(=O)[C@@H](O)[C@@H](O)[C@H](O)[C@H](O)C(=O)NCCCCCCCC` [Example 9, dioctyl D-mannaramide]: the “Gelation/solubility behaviour in 1,2-dichloroethane” value is reported as “ns”, the “Gelation/solubility behaviour in 2-octanol” value is recorded as “ns”, the “Gelation/solubility behaviour in 2-propanol” value is listed as “c” and the “Gelation/solubility behaviour in Cyclohexane” value is “ns”. For the same molecule, the “Gelation/solubility behaviour in Dimethylsulfoxide” value is reported as “c”, the “Gelation/solubility behaviour in Ethanol” value was “c”, the “Gelation/solubility behaviour in Hexadecane” value is on record as “ns” and the “Gelation/solubility behaviour in Toluene” value is reported as “ns”. Further, the “Gelation/solubility behaviour in Water” value is recorded as “ns”, the “Gelation/solubility behaviour in n-butylacetate” value is “ns” and the “Gelation/solubility behaviour in p-xylene” value is on record as “ns”.

For `CCCCCCCCNC(=O)[C@@H](O)[C@@H](O)[C@H](O)[C@@H](O)C(=O)NCCCCCCCC` [Example 8, dioctyl D-glucaramide], the “Gelation/solubility behaviour in 1,2-dichloroethane” value is “ns”, the “Gelation/solubility behaviour in 2-octanol” value is given as “ns”, the “Gelation/solubility behaviour in 2-propanol” value is given as “c” and the “Gelation/solubility behaviour in Cyclohexane” value was “ns”. The “Gelation/solubility behaviour in Dimethylsulfoxide” value is recorded as “s”, the “Gelation/solubility behaviour in Ethanol” value is reported as “c”, the “Gelation/solubility behaviour in Hexadecane” value is reported as “ns” and the “Gelation/solubility behaviour in Toluene” value is recorded as “ns”. Further, the “Gelation/solubility behaviour in Water” value is “ns”, the “Gelation/solubility behaviour in n-butylacetate” value was “ns” and the “Gelation/solubility behaviour in p-xylene” value is on record as “ns”.

In the case of `CCCCNC(=O)[C@@H](O)[C@@H](O)[C@H](O)[C@@H](O)C(=O)NCCCC` [Example 1, dibutyl D-glucaramicle], the “Gelation/solubility behaviour in 1,2-dichloroethane” value is given as “ns”, the “Gelation/solubility behaviour in Cyclohexane” value is on record as “ns”, the “Gelation/solubility behaviour in Hexadecane” value is reported as “ns” and the “Gelation/solubility behaviour in Toluene” value is “ns”. For the same molecule, the “Gelation/solubility behaviour in Water” value was “ns”, the “Gelation/solubility behaviour in n-butylacetate” value is “ns” and the “Gelation/solubility behaviour in p-xylene” value is given as “ns”.

For the molecule `CCCCCCCC/C=C\CCCCCCCCNC(=O)[C@@H](O)[C@@H](O)[C@H](O)[C@@H](O)C(=O)NCCCCCCCC/C=C\CCCCCCCC` [Example 19, dioleyl D-glucaramide], the “Gelation/solubility behaviour in 1,2-dichloroethane” value is “c”, the “Gelation/solubility behaviour in 2-octanol” value was “c”, the “Gelation/solubility behaviour in 2-propanol” value is on record as “c” and the “Gelation/solubility behaviour in Cyclohexane” value was “p”. Also, the “Gelation/solubility behaviour in Dimethylsulfoxide” value is given as “c”, the “Gelation/solubility behaviour in Ethanol” value is “c”, the “Gelation/solubility behaviour in Hexadecane” value is given as “p” and the “Gelation/solubility behaviour in Toluene” value is “p”. For the same molecule, the “Gelation/solubility behaviour in Water” value is on record as “ns”, the “Gelation/solubility behaviour in n-butylacetate” value is “c” and the “Gelation/solubility behaviour in p-xylene” value was “p”.

Take `CCCCNC(=O)[C@@H](O)[C@H](O)[C@H](O)[C@@H](O)C(=O)NCCCC` [Example 3, dibutyl galactaramide]: the “Gelation/solubility behaviour in 1,2-dichloroethane” value was “ns”, the “Gelation/solubility behaviour in 2-octanol” value was “ns”, the “Gelation/solubility behaviour in 2-propanol” value is “c” and the “Gelation/solubility behaviour in Cyclohexane” value is given as “ns”. For the same molecule, the “Gelation/solubility behaviour in Dimethylsulfoxide” value is reported as “s”, the “Gelation/solubility behaviour in Ethanol” value is given as “c”, the “Gelation/solubility behaviour in Hexadecane” value is reported as “ns” and the “Gelation/solubility behaviour in Toluene” value is given as “ns”. The “Gelation/solubility behaviour in Water” value was “ns”, the “Gelation/solubility behaviour in n-butylacetate” value is given as “ns” and the “Gelation/solubility behaviour in p-xylene” value is recorded as “ns”.
